The values below are quoted from earlier work in article PMC8287028 (Frontiers in Veterinary Science, 2021).

Each structure is given as a SMILES string.

The series deals with Factor Xa. Details: method as in PMID 35442563. The conditions noted are these: 19 sick dogs, post-treatment monitoring; cited from earlier work.

Consider `O=C(NC[C@H]1CN(c2ccc(N3CCOCC3=O)cc2)C(=O)O1)c1ccc(Cl)s1` [rivaroxaban], for which the “dogs with aXa activities below the range associated with positive clinical outcomes in humans” value is 8/19 and the “dogs with aXa activities exceeding the range associated with positive clinical outcomes in humans” value is reported as 8/19.
